Numbers after ± are expanded uncertainties.
Settings: 101.33 kPa, Liquid; for viscosity: Concentric cylinders viscometry; for mass density: Vibrating tube method

`CCOS(=O)(=O)[O-].CCn1cc[n+](C)c1` [1-ethyl-3-methylimidazolium ethyl sulfate] showed a viscosity (253.15 K) of 3146.4 ± 190 mPa·s, a mass density (253.15 K) of 1270.6 ± 1.7 kg/m3 and a viscosity (258.15 K) of 1789.6 ± 97 mPa·s. It also gave a mass density (258.15 K) of 1266.9 ± 1.6 kg/m3, a viscosity (263.15 K) of 1094.4 ± 53 mPa·s and a mass density (263.15 K) of 1263.3 ± 1.6 kg/m3. It also gave a viscosity (268.15 K) of 700.85 ± 30 mPa·s, a mass density (268.15 K) of 1259.5 ± 1.6 kg/m3 and a viscosity (273.15 K) of 466.03 ± 18 mPa·s. The mass density (273.15 K) was 1255.7 ± 1.6 kg/m3, the viscosity (278.15 K) was 321.37 ± 11 mPa·s and the mass density (278.15 K) was 1252 ± 1.6 kg/m3. The viscosity (283.15 K) was 229.15 ± 7.4 mPa·s, the mass density (283.15 K) was 1248.3 ± 1.6 kg/m3 and the viscosity (288.15 K) was 168.31 ± 5 mPa·s. For the same compound, the mass density (288.15 K) was 1244.8 ± 1.6 kg/m3, the viscosity (293.15 K) was 126.89 ± 3.5 mPa·s and the mass density (293.15 K) was 1241.3 ± 1.6 kg/m3. It also gave a viscosity (298.15 K) of 97.84 ± 2.5 mPa·s, a mass density (298.15 K) of 1237.8 ± 1.6 kg/m3 and a viscosity (303.15 K) of 77.01 ± 1.9 mPa·s. The mass density (303.15 K) was 1234.4 ± 1.6 kg/m3, the viscosity (308.15 K) was 61.71 ± 1.5 mPa·s and the mass density (308.15 K) was 1231 ± 1.6 kg/m3. The viscosity (313.15 K) was 50.25 ± 1.2 mPa·s, the mass density (313.15 K) was 1227.6 ± 1.6 kg/m3 and the viscosity (318.15 K) was 41.51 ± 0.99 mPa·s. For the same compound, the mass density (318.15 K) was 1224.2 ± 1.6 kg/m3, the viscosity (323.15 K) was 34.73 ± 0.82 mPa·s and the mass density (323.15 K) was 1220.8 ± 1.6 kg/m3. The viscosity (328.15 K) was 29.4 ± 0.69 mPa·s, the mass density (328.15 K) was 1217.4 ± 1.6 kg/m3 and the viscosity (333.15 K) was 25.15 ± 0.59 mPa·s. It also gave a mass density (333.15 K) of 1214 ± 1.6 kg/m3, a viscosity (338.15 K) of 21.72 ± 0.51 mPa·s and a mass density (338.15 K) of 1210.6 ± 1.6 kg/m3. For the same compound, the viscosity (343.15 K) was 18.91 ± 0.44 mPa·s, the mass density (343.15 K) was 1207.2 ± 1.5 kg/m3 and the viscosity (348.15 K) was 16.6 ± 0.38 mPa·s. It also gave a mass density (348.15 K) of 1203.8 ± 1.5 kg/m3, a viscosity (353.15 K) of 14.68 ± 0.34 mPa·s and a mass density (353.15 K) of 1200.4 ± 1.5 kg/m3. The viscosity (358.15 K) was 13.06 ± 0.3 mPa·s, the mass density (358.15 K) was 1197.2 ± 1.5 kg/m3 and the viscosity (363.15 K) was 11.69 ± 0.27 mPa·s. It also gave a mass density (363.15 K) of 1194.1 ± 1.5 kg/m3, a viscosity (368.15 K) of 10.52 ± 0.24 mPa·s and a mass density (368.15 K) of 1191.1 ± 1.5 kg/m3. The viscosity (373.15 K) was 9.518 ± 0.22 mPa·s and the mass density (373.15 K) was 1188.2 ± 1.5 kg/m3.

Compound `COCC[N+]1(C)CCCC1.O=S(=O)([N-]S(=O)(=O)C(F)(F)F)C(F)(F)F` has a viscosity (258.15 K) of 620.3 ± 25 mPa·s, a mass density (258.15 K) of 1494.1 ± 2.1 kg/m3 and a viscosity (263.15 K) of 412.3 ± 16 mPa·s. For the same compound, the mass density (263.15 K) was 1488.7 ± 2.1 kg/m3, the viscosity (268.15 K) was 286.4 ± 9.8 mPa·s and the mass density (268.15 K) was 1483.6 ± 2.1 kg/m3. The viscosity (273.15 K) was 204.56 ± 6.4 mPa·s, the mass density (273.15 K) was 1478.5 ± 2.1 kg/m3 and the viscosity (278.15 K) was 149.89 ± 4.3 mPa·s. It also gave a mass density (278.15 K) of 1473.7 ± 2.1 kg/m3, a viscosity (283.15 K) of 112.96 ± 3 mPa·s and a mass density (283.15 K) of 1468.8 ± 2 kg/m3. It also gave a viscosity (288.15 K) of 87.14 ± 2.2 mPa·s, a mass density (288.15 K) of 1464 ± 2 kg/m3 and a viscosity (293.15 K) of 68.61 ± 1.7 mPa·s. The mass density (293.15 K) was 1459.3 ± 2 kg/m3, the viscosity (298.15 K) was 55.06 ± 1.3 mPa·s and the mass density (298.15 K) was 1454.7 ± 2 kg/m3. The viscosity (303.15 K) was 44.9 ± 1.1 mPa·s, the mass density (303.15 K) was 1450 ± 2 kg/m3 and the viscosity (308.15 K) was 37.15 ± 0.88 mPa·s. The mass density (308.15 K) was 1445.2 ± 2 kg/m3, the viscosity (313.15 K) was 31.15 ± 0.73 mPa·s and the mass density (313.15 K) was 1440.5 ± 2 kg/m3. For the same compound, the viscosity (318.15 K) was 26.43 ± 0.62 mPa·s, the mass density (318.15 K) was 1435.9 ± 2 kg/m3 and the viscosity (323.15 K) was 22.66 ± 0.53 mPa·s. For the same compound, the mass density (323.15 K) was 1431.2 ± 2 kg/m3, the viscosity (328.15 K) was 19.59 ± 0.46 mPa·s and the mass density (328.15 K) was 1426.6 ± 2 kg/m3. The viscosity (333.15 K) was 17.09 ± 0.4 mPa·s, the mass density (333.15 K) was 1422 ± 1.9 kg/m3 and the viscosity (338.15 K) was 15.03 ± 0.35 mPa·s. It also gave a mass density (338.15 K) of 1417.4 ± 1.9 kg/m3, a viscosity (343.15 K) of 13.32 ± 0.31 mPa·s and a mass density (343.15 K) of 1412.9 ± 1.9 kg/m3. For the same compound, the viscosity (348.15 K) was 11.88 ± 0.27 mPa·s, the mass density (348.15 K) was 1408.2 ± 1.9 kg/m3 and the viscosity (353.15 K) was 10.66 ± 0.24 mPa·s. It also gave a mass density (353.15 K) of 1403.3 ± 1.9 kg/m3, a viscosity (358.15 K) of 9.617 ± 0.22 mPa·s and a mass density (358.15 K) of 1398.6 ± 1.9 kg/m3. For the same compound, the viscosity (363.15 K) was 8.718 ± 0.2 mPa·s, the mass density (363.15 K) was 1394.2 ± 1.9 kg/m3 and the viscosity (368.15 K) was 7.94 ± 0.18 mPa·s. The mass density (368.15 K) was 1389.9 ± 1.9 kg/m3, the viscosity (373.15 K) was 7.263 ± 0.17 mPa·s and the mass density (373.15 K) was 1385.7 ± 1.9 kg/m3.

Work on `CCCCn1cc[n+](C)c1C.O=S(=O)([N-]S(=O)(=O)C(F)(F)F)C(F)(F)F` yielded a viscosity (273.15 K) of 518.55 ± 20 mPa·s, a mass density (273.15 K) of 1443.3 ± 2 kg/m3 and a viscosity (278.15 K) of 353.44 ± 13 mPa·s. It also gave a mass density (278.15 K) of 1438.4 ± 2 kg/m3, a viscosity (283.15 K) of 249.26 ± 8.2 mPa·s and a mass density (283.15 K) of 1433.5 ± 2 kg/m3. For the same compound, the viscosity (288.15 K) was 180.5 ± 5.5 mPa·s, the mass density (288.15 K) was 1428.7 ± 2 kg/m3 and the viscosity (293.15 K) was 134.22 ± 3.8 mPa·s. For the same compound, the mass density (293.15 K) was 1424 ± 2 kg/m3, the viscosity (298.15 K) was 102.19 ± 2.7 mPa·s and the mass density (298.15 K) was 1419.4 ± 1.9 kg/m3. For the same compound, the viscosity (303.15 K) was 79.46 ± 2 mPa·s, the mass density (303.15 K) was 1414.8 ± 1.9 kg/m3 and the viscosity (308.15 K) was 62.97 ± 1.5 mPa·s. For the same compound, the mass density (308.15 K) was 1410.1 ± 1.9 kg/m3, the viscosity (313.15 K) was 50.76 ± 1.2 mPa·s and the mass density (313.15 K) was 1405.5 ± 1.9 kg/m3. The viscosity (318.15 K) was 41.53 ± 0.99 mPa·s, the mass density (318.15 K) was 1401 ± 1.9 kg/m3 and the viscosity (323.15 K) was 34.45 ± 0.82 mPa·s. It also gave a mass density (323.15 K) of 1396.4 ± 1.9 kg/m3, a viscosity (328.15 K) of 28.91 ± 0.68 mPa·s and a mass density (328.15 K) of 1391.8 ± 1.9 kg/m3. The viscosity (333.15 K) was 24.54 ± 0.58 mPa·s, the mass density (333.15 K) was 1387.3 ± 1.9 kg/m3 and the viscosity (338.15 K) was 21.03 ± 0.49 mPa·s. The mass density (338.15 K) was 1382.8 ± 1.9 kg/m3, the viscosity (343.15 K) was 18.17 ± 0.42 mPa·s and the mass density (343.15 K) was 1378.4 ± 1.9 kg/m3. It also gave a viscosity (348.15 K) of 15.83 ± 0.37 mPa·s, a mass density (348.15 K) of 1373.9 ± 1.9 kg/m3 and a viscosity (353.15 K) of 13.9 ± 0.32 mPa·s. It also gave a mass density (353.15 K) of 1369.3 ± 1.8 kg/m3, a viscosity (358.15 K) of 12.3 ± 0.28 mPa·s and a mass density (358.15 K) of 1364.4 ± 1.8 kg/m3. The viscosity (363.15 K) was 10.94 ± 0.25 mPa·s, the mass density (363.15 K) was 1359.8 ± 1.8 kg/m3 and the viscosity (368.15 K) was 9.794 ± 0.23 mPa·s. The mass density (368.15 K) was 1355.5 ± 1.8 kg/m3, the viscosity (373.15 K) was 8.813 ± 0.2 mPa·s and the mass density (373.15 K) was 1351.3 ± 1.8 kg/m3.

In the case of `CCCC[N+]1(C)CCCC1.FC(F)(F)C(F)(F)[P-](F)(F)(F)(C(F)(F)C(F)(F)F)C(F)(F)C(F)(F)F`, the viscosity (283.15 K) is reported as 593.7 ± 24 mPa·s, the mass density (283.15 K) is reported as 1599.8 ± 2.4 kg/m3 and the viscosity (288.15 K) is reported as 409.8 ± 15 mPa·s. It also gave a mass density (288.15 K) of 1594.2 ± 2.3 kg/m3, a viscosity (293.15 K) of 291.5 ± 9.9 mPa·s and a mass density (293.15 K) of 1588.6 ± 2.3 kg/m3. It also gave a viscosity (298.15 K) of 213.1 ± 6.7 mPa·s, a mass density (298.15 K) of 1583.2 ± 2.3 kg/m3 and a viscosity (303.15 K) of 159.61 ± 4.6 mPa·s. It also gave a mass density (303.15 K) of 1577.9 ± 2.3 kg/m3, a viscosity (308.15 K) of 122.18 ± 3.3 mPa·s and a mass density (308.15 K) of 1572.6 ± 2.3 kg/m3. For the same compound, the viscosity (313.15 K) was 95.36 ± 2.4 mPa·s, the mass density (313.15 K) was 1567.4 ± 2.3 kg/m3 and the viscosity (318.15 K) was 75.75 ± 1.9 mPa·s. It also gave a mass density (318.15 K) of 1562.1 ± 2.3 kg/m3, a viscosity (323.15 K) of 61.13 ± 1.5 mPa·s and a mass density (323.15 K) of 1556.9 ± 2.3 kg/m3. For the same compound, the viscosity (328.15 K) was 50.03 ± 1.2 mPa·s, the mass density (328.15 K) was 1551.7 ± 2.2 kg/m3 and the viscosity (333.15 K) was 41.48 ± 0.98 mPa·s. The mass density (333.15 K) was 1546.6 ± 2.2 kg/m3, the viscosity (338.15 K) was 34.79 ± 0.82 mPa·s and the mass density (338.15 K) was 1541.5 ± 2.2 kg/m3. The viscosity (343.15 K) was 29.49 ± 0.69 mPa·s, the mass density (343.15 K) was 1536.3 ± 2.2 kg/m3 and the viscosity (348.15 K) was 25.24 ± 0.59 mPa·s. For the same compound, the mass density (348.15 K) was 1531.1 ± 2.2 kg/m3, the viscosity (353.15 K) was 21.79 ± 0.51 mPa·s and the mass density (353.15 K) was 1525.7 ± 2.2 kg/m3. It also gave a viscosity (358.15 K) of 18.97 ± 0.44 mPa·s, a mass density (358.15 K) of 1520.4 ± 2.2 kg/m3 and a viscosity (363.15 K) of 16.63 ± 0.39 mPa·s. For the same compound, the mass density (363.15 K) was 1515.3 ± 2.2 kg/m3, the viscosity (368.15 K) was 14.68 ± 0.34 mPa·s and the mass density (368.15 K) was 1510.4 ± 2.1 kg/m3. The viscosity (373.15 K) was 13.04 ± 0.3 mPa·s and the mass density (373.15 K) was 1505.5 ± 2.1 kg/m3.
